Laboratory results: EP4818168A1, “FUSED RING COMPOUND, PHARMACEUTICAL COMPOSITION THEREOF AND USE THEREOF” (priority 2023, dated 2025)
Read-outs that look alike come from different tables or passages of the source.

Columns and labels:
AURKA = target: T1, AURKA (Homo sapiens, UniProt O14965); format: cell-based
T1 construct: endogenous in cells; host or cells: Jurkat cells
T1 sequence (O14965 1-403): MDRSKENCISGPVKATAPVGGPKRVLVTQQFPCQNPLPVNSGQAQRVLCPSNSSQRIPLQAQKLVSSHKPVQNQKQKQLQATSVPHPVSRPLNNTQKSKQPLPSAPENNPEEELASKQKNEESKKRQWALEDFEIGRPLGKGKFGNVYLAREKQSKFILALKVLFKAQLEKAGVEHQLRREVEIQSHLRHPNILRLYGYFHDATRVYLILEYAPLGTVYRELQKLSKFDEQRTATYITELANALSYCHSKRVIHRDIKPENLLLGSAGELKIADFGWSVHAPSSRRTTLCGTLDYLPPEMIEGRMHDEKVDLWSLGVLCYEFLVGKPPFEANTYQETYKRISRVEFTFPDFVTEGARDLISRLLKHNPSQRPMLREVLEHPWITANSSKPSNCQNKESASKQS
In short: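 AURKA degradation read by western blot: band signal, fluorescent or chemiluminescent, curve-fitted to derive DC50. Cells were Jurkat, plated at 1×10^6 cells/500 µL with compound, then lysed and blotted onto nitrocellulose, primary antibody overnight at 4°C.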

HCC1806 cells = test: CTG assay of compound inhibition on cell viability (HCC1806 cells); format: cell-based; conditions: Homo sapiens, HCC1806, 144 h, read-out: IC50 in HCC1806 Cells
Protocol: CellTiter-Glo (CTG) is a rapid cell viability test method based on ATP detection. […] Adenosine triphosphate (ATP) participates in various enzymatic reactions in organisms and is an indicator of living cell metabolism. Its content directly reflects the number of living cells and cell status. During the experiment, equal volume of CTG reagent is added to the cultured cells to measure the luminescence value. The chemiluminescent signal value is proportional to the amount of ATP, thus reflecting the number of viable cells. Therefore, cell viability can be obtained by detecting the ATP content. Compounds that affect cell viability will inhibit cell viability in a concentration-dependent manner, allowing a curve to be fitted to obtain the IC50 value.
The experimental procedure is as follows: • 11. Place the cell suspension in a 15 mL centrifuge tube, centrifuge at 1000 rpm for 5 min at room temperature, discard the supernatant, and collect the cell pellet. • 12. Resuspend the cell pellet with preheated complete cell culture medium (RPMI1640+10%FBS+1%PS), and use a Countess® automated cell counter to detect cell viability and density. The cell viability must be above 90%. • 13. […] Transfer the compound solution to a 96-well plate seeded with cells (final concentration of DMSO 0.1%), and place in a cell incubator at 37°C, 5% CO2 for 6 days. • 15. […] Protect from light during the whole process. Perform optical signal readings using a SpectraMax i3x reader. • 16. Data analysis: Remaining activity (%) = 100% * (1 - ((LumDMSO - Lummedium) - Lumsample) / (LumDMSO - LumPBS/medium)). Use GraphPad Prism 9.0 software to draw an S-shaped dose-survival rate curve and calculate the IC50 value using a nonlinear regression model.

[1] = 100 nM compound, Jurkat cells, 24 h, Table 1
[2] = 1 µM compound, Jurkat cells, 24 h, Table 1

Row | SMILES | Percentage of AURKA Degradation Induced by 100 nM Compound in Jurkat Cells (AURKA; [1]) | Percentage of AURKA Degradation Induced by 1 µM Compound in Jurkat Cells (AURKA; [2]) | IC50 (HCC1806 cells) [nM] | Percentage of AURKA Degradation Induced by 100 nM Compound in Jurkat Cells (AURKA) | Percentage of AURKA Degradation Induced by 1 µM Compound in Jurkat Cells (AURKA)
1 | O=C1CCN(c2ccc(N3CC4(CCC(NC(=O)c5ccc(Nc6ncc7c(n6)-c6ccc(Cl)cc6C(c6c(F)cccc6F)=NC7)cc5)CC4)C3)nc2)C(=O)N1 [Compound A61] | +++ (Degradation > 70%) | +++ (Degradation > 70%) | < 1000 |  | 
2 | COc1cccc(F)c1C1=NCc2cnc(Nc3ccc(C(=O)NC4CC5(C4)CN(c4cccc(N6CCC(=O)NC6=O)c4)C5)cc3)nc2-c2ccc(Cl)cc21 [Compound A63] | ++ (30% < Degradation ≤ 70%) | ++ (30% < Degradation ≤ 70%) | < 1000 |  | 
3 | O=C1CCN(c2ccc(N3CCN(CCNC(=O)c4ccc(Nc5ncc6c(n5)-c5ccc(Cl)cc5C(c5c(F)cccc5F)=NC6)cc4)CC3=O)nc2)C(=O)N1 [Compound A64] |  |  | < 1000 | +++ (key: +: Degradation ≤ 30%; ++: 30% < Degradation ≤ 70%; +++: Degradation > 70%) | ++ (key: +: Degradation ≤ 30%; ++: 30% < Degradation ≤ 70%; +++: Degradation > 70%)
4 | COc1cccc(F)c1C1=NCc2cnc(Nc3ccc(C(=O)NCCN4CCN(c5ccc(N6CCC(=O)NC6=O)cn5)C(=O)C4)cc3)nc2-c2ccc(Cl)cc21 [Compound A65] | +++ (Degradation > 70%) | ++ (30% < Degradation ≤ 70%) | < 1000 |  | 
5 | O=C1CCN(c2ccc(N3CCN(CCNC(=O)c4ccc(Nc5ncc6c(n5)-c5ccc(Cl)cc5C(c5c(F)cccc5F)=NC6)cc4)CC34CC4)nc2)C(=O)N1 [Compound A66] | + (Degradation ≤ 30%) | + (Degradation ≤ 30%) | < 1000 |  | 
6 | COc1cccc(F)c1C1=NCc2cnc(Nc3ccc(C(=O)NCCN4CCN(c5ccc(N6CCC(=O)NC6=O)cn5)C5(CC5)C4)cc3)nc2-c2ccc(Cl)cc21 [Compound A67] | + (Degradation ≤ 30%) | + (Degradation ≤ 30%) | < 1000 |  | 
7 | COc1cccc(F)c1C1=NCc2cnc(Nc3ccc(C(=O)NCCN4CCN(c5ccc(N6CCC(=O)NC6=O)cn5)CC45CC5)cc3)nc2-c2ccc(Cl)cc21 [Compound A69] | +++ (Degradation > 70%) | +++ (Degradation > 70%) | < 1000 |  | 
8 | O=C1CCN(c2ccc(N3CC(CN4CC(NC(=O)c5ccc(Nc6ncc7c(n6)-c6ccc(Cl)cc6C(c6c(F)cccc6F)=NC7)cc5)C4)C3)cc2)C(=O)N1 [Compound A70] | +++ (Degradation > 70%) | +++ (Degradation > 70%) | < 1000 |  | 
9 | COc1cccc(F)c1C1=NCc2cnc(Nc3ccc(C(=O)NC4CN(CC5CN(c6ccc(N7CCC(=O)NC7=O)cc6)C5)C4)cc3)nc2-c2ccc(Cl)cc21 [Compound A71] | +++ (Degradation > 70%) | +++ (Degradation > 70%) | < 1000 |  | 
10 | O=C1CCN(c2cccc(N3CC(CN4CC(NC(=O)c5ccc(Nc6ncc7c(n6)-c6ccc(Cl)cc6C(c6c(F)cccc6F)=NC7)cc5)C4)C3)c2)C(=O)N1 [Compound A72] | +++ (Degradation > 70%) | +++ (Degradation > 70%) | < 1000 |  | 
11 | COc1cccc(F)c1C1=NCc2cnc(Nc3ccc(C(=O)NC4CN(CC5CN(c6cccc(N7CCC(=O)NC7=O)c6)C5)C4)cc3)nc2-c2ccc(Cl)cc21 [Compound A73] | +++ (Degradation > 70%) | +++ (Degradation > 70%) | < 1000 |  | 
12 | O=C1CCN(c2cccc(N3CC(N4CC(NC(=O)c5ccc(Nc6ncc7c(n6)-c6ccc(Cl)cc6C(c6c(F)cccc6F)=NC7)cc5)C4)C3)c2)C(=O)N1 [Compound A74] | ++ (30% < Degradation ≤ 70%) | ++ (30% < Degradation ≤ 70%) | < 1000 |  | 
